# Experiments:
# [1] = system: pathogenic and beneficial microbes; test: Total biofilm growth in the presence of arginine (crystal violet staining); type: cell-based; conditions: vs no substrate control, species other than A. actinomycetemcomitans
# From the text: (§1) *Single species growth and biofilm formation stimulated by arginine in comparison to the reference control which was set to a value of 1 (p<0.05). Cut-off values were set to a factor of 1.2 for growth (upper 5% of all data), and 1.45 for biofilm formation (upper 20% of all data). Aa: Aggregatibacter actinomycetemcomitans, Fn: Fusobacterium nucleatum, Ssob: Streptococcus sobrinus, Avisc: Actinomyces viscosus, Ssal: Streptococcus salivarius, Smitis: Streptococcus mitis, Ssang: Streptococcus sanguinis, Sgord: Streptococcus gordonii, Soralis: Streptococcus oralis.
# (§2) Total biofilm growth in the presence of arginine was assessed through crystal violet staining. An increase of 1.2-fold or greater over the no substrate control was considered significant as calculated using a Student's t-test (p<0.05).
# S. gordonii = test: Single species growth in media supplemented with arginine (optical density 630 nm); type: cell-based, Streptococcus gordonii; conditions: 10-25 micromol/ml arginine; vs reference control set to 1; OD 630 nm at 24 and 48 hours
# Procedure: (§3) To assess the impact of the amino acid arginine on beneficial oral bacteria and on pathogenic oral bacteria, representative bacterial species were cultured in media supplemented with 5, 10, 20, and 25 micromol/ml of arginine using a 96-well polystyrene microtiter plate. The bacterial cultures were incubated under anaerobic conditions or an environment containing 5% carbon dioxide, monitoring growth at 24 and 48 hours through optical density at a wavelength of 630 nm.
# as §1
# A. viscosus = test: as above; type: cell-based, Actinomyces viscosus; conditions: 10-25 micromol/ml arginine; vs reference control set to 1; OD 630 nm at 24 and 48 hours
# Procedure: as §3, §1
# pathogenic bacteria = test: as above; type: cell-based; conditions: 5, 10, 20, 25 micromol/ml arginine; OD 630 nm at 24 and 48 hours
# Procedure: as §3, §1
# [2] = system: A. actinomycetemcomitans biofilms; test: Total biofilm growth in the presence of arginine (crystal violet staining); type: cell-based, Aggregatibacter actinomycetemcomitans; conditions: vs no substrate control
# From the text: as §1, §2
# S. sanguinis = test: Single species growth in media supplemented with arginine (optical density 630 nm); type: cell-based, Streptococcus sanguinis; conditions: 10-25 micromol/ml arginine; vs reference control set to 1; OD 630 nm at 24 and 48 hours
# Procedure: as §3, §1
# Porphyromonas gingivalis = test: Dual species competitive biofilm assay (qPCR); type: cell-based; conditions: 25 μmol/ml arginine, negative value = reduction of pathogen
# Procedure: (§4) The impact of arginine in a dual-species biofilm was assessed by co-culturing one beneficial bacterial species with on pathogenic microbe in media containing 25 micromol/ml of arginine. The total beneficial-to-pathogen load in the results biofilms were determined via qPCR using DNA probes.
# (§5) Using a competitive biofilm assay, the role of arginine as a selective nutrient was assessed using a dual species biofilm model (Table 2).
# Streptococcus sobrinus = test: Dual species competitive biofilm assay (qPCR); type: cell-based; conditions: 25 μmol/ml arginine, negative value = reduction of pathogen
# Procedure: as §4, §5
# [3] = system: Aggregatibacter actinomycetemcomitans; test: Dual species competitive biofilm assay (qPCR); type: cell-based; conditions: 25 μmol/ml arginine, negative value = reduction of pathogen
# Procedure: as §4, §5
# Streptococcus mutans = test: Dual species competitive biofilm assay (qPCR); type: cell-based; conditions: 25 μmol/ml arginine, negative value = reduction of pathogen
# Procedure: as §4, §5
# Prevotella intermedia = test: Dual species competitive biofilm assay (qPCR); type: cell-based; conditions: 25 μmol/ml arginine, negative value = reduction of pathogen
# Procedure: as §4, §5
# beneficial bacteria = test: Dual species competitive biofilm assay (qPCR); type: cell-based; conditions: 25 micromol/ml arginine; co-cultured with one pathogenic microbe
# Procedure: as §4, §5
# Fusobacterium nucieatum = test: Dual species competitive biofilm assay (qPCR); type: cell-based, Fusobacterium nucleatum; conditions: 25 μmol/ml arginine, negative value = reduction of pathogen
# Procedure: as §4, §5
# [4] = co-cultured with Actinomyces viscosus
# [5] = co-cultured with Streptoccoccus salivarius
# [6] = co-cultured with Streptococcus gordonii
# [7] = co-cultured with Streptococcus mitis
# [8] = co-cultured with Streptococcus oralis
# [9] = co-cultured with Streptococcus sanguinis
smiles,measurement,setting,value
N=C(N)NCCC[C@H](N)C(=O)O [arginine],biofilm formation,[1],no significant increase
same,fold increase of growth,S. gordonii,1.2-1.3 fold
same,fold increase of growth,A. viscosus,1.2-1.3 fold
same,increase of pathogenic bacteria growth,pathogenic bacteria,no significant increase
same,biofilm formation,[2],increase
same,fold increase of growth,S. sanguinis,1.2-1.3 fold
same,Proportional reduction of pathogenic species in a dual species biofilm post-Arginine treatment,Porphyromonas gingivalis; [4],−97.78%
same,Proportional reduction of pathogenic species in a dual species biofilm post-Arginine treatment,Porphyromonas gingivalis; [5],90.75%
same,Proportional reduction of pathogenic species in a dual species biofilm post-Arginine treatment,Porphyromonas gingivalis; [6],−52.94%
same,Proportional reduction of pathogenic species in a dual species biofilm post-Arginine treatment,Porphyromonas gingivalis; [7],−96.62%
same,Proportional reduction of pathogenic species in a dual species biofilm post-Arginine treatment,Porphyromonas gingivalis; [8],−79.23%
same,Proportional reduction of pathogenic species in a dual species biofilm post-Arginine treatment,Porphyromonas gingivalis; [9],−85.49%
same,Proportional reduction of pathogenic species in a dual species biofilm post-Arginine treatment,Streptococcus sobrinus; [4],−7.87%
same,Proportional reduction of pathogenic species in a dual species biofilm post-Arginine treatment,Streptococcus sobrinus; [5],−1.33%
same,Proportional reduction of pathogenic species in a dual species biofilm post-Arginine treatment,Streptococcus sobrinus; [6],−50.33%
same,Proportional reduction of pathogenic species in a dual species biofilm post-Arginine treatment,Streptococcus sobrinus; [7],49.29%
same,Proportional reduction of pathogenic species in a dual species biofilm post-Arginine treatment,Streptococcus sobrinus; [8],−15.77%
same,Proportional reduction of pathogenic species in a dual species biofilm post-Arginine treatment,Streptococcus sobrinus; [9],−40.73%
same,Proportional reduction of pathogenic species in a dual species biofilm post-Arginine treatment,[3]; [4],−25.66%
same,Proportional reduction of pathogenic species in a dual species biofilm post-Arginine treatment,[3]; [5],−35.38%
same,Proportional reduction of pathogenic species in a dual species biofilm post-Arginine treatment,[3]; [6],100.61%
same,Proportional reduction of pathogenic species in a dual species biofilm post-Arginine treatment,[3]; [7],73.94%
same,Proportional reduction of pathogenic species in a dual species biofilm post-Arginine treatment,[3]; [8],268.65%
same,Proportional reduction of pathogenic species in a dual species biofilm post-Arginine treatment,[3]; [9],233.40%
same,Proportional reduction of pathogenic species in a dual species biofilm post-Arginine treatment,Streptococcus mutans; [4],−23.93%
same,Proportional reduction of pathogenic species in a dual species biofilm post-Arginine treatment,Streptococcus mutans; [5],−15.19%
same,Proportional reduction of pathogenic species in a dual species biofilm post-Arginine treatment,Streptococcus mutans; [6],−87.64%
same,Proportional reduction of pathogenic species in a dual species biofilm post-Arginine treatment,Streptococcus mutans; [7],−0.72%
same,Proportional reduction of pathogenic species in a dual species biofilm post-Arginine treatment,Streptococcus mutans; [8],−3.47%
same,Proportional reduction of pathogenic species in a dual species biofilm post-Arginine treatment,Streptococcus mutans; [9],−19.30%
same,Proportional reduction of pathogenic species in a dual species biofilm post-Arginine treatment,Prevotella intermedia; [4],−99.99%
same,Proportional reduction of pathogenic species in a dual species biofilm post-Arginine treatment,Prevotella intermedia; [5],81.56%
same,Proportional reduction of pathogenic species in a dual species biofilm post-Arginine treatment,Prevotella intermedia; [6],−98.29%
same,Proportional reduction of pathogenic species in a dual species biofilm post-Arginine treatment,Prevotella intermedia; [7],−52.64%
same,Proportional reduction of pathogenic species in a dual species biofilm post-Arginine treatment,Prevotella intermedia; [8],−73.78%
same,Proportional reduction of pathogenic species in a dual species biofilm post-Arginine treatment,Prevotella intermedia; [9],−99.35%
same,growth of beneficial bacteria in arginine-cultured dual species biofilms,beneficial bacteria,increase
same,Proportional reduction of pathogenic species in a dual species biofilm post-Arginine treatment,Fusobacterium nucieatum; [4],13.35%
same,Proportional reduction of pathogenic species in a dual species biofilm post-Arginine treatment,Fusobacterium nucieatum; [5],−28.32%
same,Proportional reduction of pathogenic species in a dual species biofilm post-Arginine treatment,Fusobacterium nucieatum; [6],474.12%
same,Proportional reduction of pathogenic species in a dual species biofilm post-Arginine treatment,Fusobacterium nucieatum; [7],209.31%
same,Proportional reduction of pathogenic species in a dual species biofilm post-Arginine treatment,Fusobacterium nucieatum; [8],101.73%
same,Proportional reduction of pathogenic species in a dual species biofilm post-Arginine treatment,Fusobacterium nucieatum; [9],112.11%
